Legend:
[1] = system: Enterococcus faecalis; assay: Antimicrobial activity against Enterococcus faecalis 29212 assessed as absence bacterial growth measured after 18 to 24 hrs incubation by NCCLS method; assay type: functional; conditions: time 18-24 hrs
[2] = system: Escherichia coli; assay: Antimicrobial activity against Escherichia coli 25922 assessed as bacterial killing measured after 16 hrs incubation; assay type: functional
[3] = Antimicrobial activity against Salmonella pullorum C7913 assessed as absence bacterial growth measured after 18 to 24 hrs incubation by NCCLS method; assay type: functional, Salmonella enterica subsp. enterica serovar Pullorum; conditions: Salmonella enterica, time 18-24 hrs
[4] = system: Escherichia coli; assay: Antimicrobial activity against Escherichia coli K88 assessed as absence bacterial growth measured after 18 to 24 hrs incubation by NCCLS method; assay type: functional; conditions: time 18-24 hrs
[5] = system: Staphylococcus aureus; assay: Antimicrobial activity against Methicillin-resistant Staphylococcus aureus 43300 assessed as absence bacterial growth measured after 18 to 24 hrs incubation by NCCLS method; assay type: functional; conditions: time 18-24 hrs
[6] = system: Bacillus cereus; assay: Antimicrobial activity against Bacillus cereus 1.932 assessed as bacterial killing measured after 16 hrs incubation; assay type: functional
[7] = system: Escherichia coli; assay: Antimicrobial activity against Escherichia coli 25922 assessed as absence bacterial growth measured after 18 to 24 hrs incubation by NCCLS method; assay type: functional; conditions: time 18-24 hrs
[8] = system: Salmonella typhimurium; assay: Antimicrobial activity against Salmonella typhimurium C7731 assessed as bacterial killing measured after 16 hrs incubation; assay type: functional, Salmonella enterica subsp. enterica serovar Typhimurium; conditions: Salmonella enterica
[9] = system: Staphylococcus aureus; assay: Antimicrobial activity against Staphylococcus aureus 29213 assessed as bacterial killing measured after 16 hrs incubation; assay type: functional
[10] = system: Escherichia coli; assay: Antimicrobial activity against Escherichia coli K88 assessed as bacterial killing measured after 16 hrs incubation; assay type: functional
[11] = system: Staphylococcus aureus; assay: Antimicrobial activity against Staphylococcus aureus 25923 assessed as bacterial killing measured after 16 hrs incubation; assay type: functional
[12] = Antimicrobial activity against Salmonella pullorum C7913 assessed as bacterial killing measured after 16 hrs incubation; assay type: functional, Salmonella enterica subsp. enterica serovar Pullorum; conditions: Salmonella enterica
[13] = system: Bacillus cereus; assay: Antimicrobial activity against Bacillus cereus 1.932 assessed as absence bacterial growth measured after 18 to 24 hrs incubation by NCCLS method; assay type: functional; conditions: time 18-24 hrs
[14] = system: Acinetobacter baumannii; assay: Antimicrobial activity against Acinetobacter baumannii 1.6769 assessed as bacterial killing measured after 16 hrs incubation; assay type: functional
[15] = system: Salmonella typhimurium; assay: Antimicrobial activity against Salmonella typhimurium 14028 assessed as bacterial killing measured after 16 hrs incubation; assay type: functional, Salmonella enterica subsp. enterica serovar Typhimurium; conditions: Salmonella enterica
[16] = system: Staphylococcus epidermidis; assay: Antimicrobial activity against Staphylococcus epidermidis 12228 assessed as bacterial killing measured after 16 hrs incubation; assay type: functional
[17] = system: Salmonella typhimurium; assay: Antimicrobial activity against Salmonella typhimurium 14028 assessed as absence bacterial growth measured after 18 to 24 hrs incubation by NCCLS method; assay type: functional, Salmonella enterica subsp. enterica serovar Typhimurium; conditions: Salmonella enterica, time 18-24 hrs
[18] = system: Staphylococcus aureus; assay: Antimicrobial activity against Staphylococcus aureus 29213 assessed as absence bacterial growth measured after 18 to 24 hrs incubation by NCCLS method; assay type: functional; conditions: time 18-24 hrs
[19] = system: Staphylococcus aureus; assay: Antimicrobial activity against Staphylococcus aureus 29213 assessed as absence bacterial growth measured after 18 to 24 hrs incubation by NCCLS m; assay type: functional; conditions: time 18-24 hrs
[20] = system: Staphylococcus epidermidis; assay: Antimicrobial activity against Staphylococcus epidermidis 12228 assessed as absence bacterial growth measured after 18 to 24 hrs incubation by NCCLS method; assay type: functional; conditions: time 18-24 hrs
[21] = system: Pseudomonas aeruginosa; assay: Antimicrobial activity against Pseudomonas aeruginosa 27853 assessed as absence bacterial growth measured after 18 to 24 hrs incubation by NCCLS method; assay type: functional; conditions: time 18-24 hrs
[22] = system: Acinetobacter baumannii; assay: Antimicrobial activity against Acinetobacter baumannii 1.6769 assessed as absence bacterial growth measured after 18 to 24 hrs incubation by NCCLS method; assay type: functional; conditions: time 18-24 hrs
[23] = system: Staphylococcus aureus; assay: Antimicrobial activity against Methicillin-resistant Staphylococcus aureus 43300 assessed as bacterial killing measured after 16 hrs incubation; assay type: functional
[24] = system: Pseudomonas aeruginosa; assay: Antimicrobial activity against Pseudomonas aeruginosa 27853 assessed as bacterial killing measured after 16 hrs incubation; assay type: functional
[25] = system: Salmonella typhimurium; assay: Antimicrobial activity against Salmonella typhimurium C7731 assessed as absence bacterial growth measured after 18 to 24 hrs incubation by NCCLS method; assay type: functional, Salmonella enterica subsp. enterica serovar Typhimurium; conditions: Salmonella enterica, time 18-24 hrs
[26] = system: Listeria monocytogenes; assay: Antimicrobial activity against Listeria monocytogenes 1.10753 assessed as bacterial killing measured after 16 hrs incubation; assay type: functional
[27] = system: Enterococcus faecalis; assay: Antimicrobial activity against Enterococcus faecalis 29212 assessed as bacterial killing measured after 16 hrs incubation; assay type: functional
[28] = system: Listeria monocytogenes; assay: Antimicrobial activity against Listeria monocytogenes 1.10753 assessed as absence bacterial growth measured after 18 to 24 hrs incubation by NCCLS method; assay type: functional; conditions: time 18-24 hrs
[29] = Cytotoxicity against mouse RAW264.7 cells assessed as cell survival rate measured after 8 hrs by MTT assay; assay type: toxicity, cell-based
[30] = system: Escherichia coli; assay: Antimicrobial activity against Escherichia coli 25922 assessed as absence bacterial growth measured after 18 to 24 hrs incubation in presence of NH4Cl by NCCLS method; assay type: functional; conditions: time 18-24 hrs
[31] = system: Escherichia coli; assay: Antimicrobial activity against Escherichia coli 25922 assessed as absence bacterial growth measured after 18 to 24 hrs incubation in presence of ZnCl2 by NCCLS method; assay type: functional; conditions: time 18-24 hrs
[32] = system: Escherichia coli; assay: Antimicrobial activity against Escherichia coli 25922 assessed as absence bacterial growth measured after 18 to 24 hrs incubation in presence of MgCl2 by NCCLS method; assay type: functional; conditions: time 18-24 hrs
[33] = Cytotoxicity against human HEK-293T cells assessed as cell survival rate measured after 8 hrs by MTT assay; assay type: toxicity, cell-based
[34] = system: Escherichia coli; assay: Antimicrobial activity against Escherichia coli 25922 assessed as absence bacterial growth measured after 18 to 24 hrs incubation in presence of KCl by NCCLS method; assay type: functional; conditions: time 18-24 hrs
[35] = system: Escherichia coli; assay: Antimicrobial activity against Escherichia coli 25922 assessed as absence bacterial growth measured after 18 to 24 hrs incubation in presence of FeCl3 by NCCLS method; assay type: functional; conditions: time 18-24 hrs
[36] = system: Escherichia coli; assay: Antimicrobial activity against Escherichia coli 25922 assessed as absence bacterial growth measured after 18 to 24 hrs incubation in presence of 12.5% serum by NCCLS method; assay type: functional; conditions: time 18-24 hrs
[37] = system: Escherichia coli; assay: Antimicrobial activity against Escherichia coli 25922 assessed as absence bacterial growth measured after 18 to 24 hrs incubation in presence of NaCl by NCCLS method; assay type: functional; conditions: time 18-24 hrs
[38] = system: Erythrocyte; assay: Hemolytic activity in human RBC at effective concentration measured after 1 hr by microplate reader analysis; assay type: toxicity, cell-based
[39] = Cytotoxicity against porcine IPEC-J2 cells assessed as cell survival rate measured after 8 hrs by MTT assay; assay type: toxicity, cell-based, Sus scrofa; conditions: pig
[40] = system: Escherichia coli; assay: Antimicrobial activity against Escherichia coli 25922 assessed as absence bacterial growth measured after 18 to 24 hrs incubation in presence of 50% serum by NCCLS method; assay type: functional; conditions: time 18-24 hrs
[41] = system: Escherichia coli; assay: Antimicrobial activity against Escherichia coli 25922 assessed as absence bacterial growth measured after 18 to 24 hrs incubation in presence of 25% serum by NCCLS method; assay type: functional; conditions: time 18-24 hrs

H-AKLWLKAAKLWLKAAKLWLKA-NH2
MIC [1]: 4 µM
MBC [2]: 1 µM
MIC [3]: 2 µM
MIC [4]: 0.5 µM
MIC [5]: 2 µM
MBC [6]: 2 µM
MIC [7]: 1 µM
MBC [8]: 0.5 µM
MBC [9]: 2 µM
MBC [10]: 0.5 µM
MBC [11]: 4 µM
MBC [12]: 8 µM
MIC [13]: 2 µM
MBC [14]: 1 µM
MBC [15]: 2 µM
MBC [16]: 4 µM
MIC [17]: 1 µM
MIC [18]: 2 µM
MIC [19]: 2 µM
MIC [20]: 2 µM
MIC [21]: 2 µM
MIC [22]: 1 µM
MBC [23]: 4 µM
MBC [24]: 4 µM
MIC [25]: 0.5 µM
MBC [26]: 32 µM
MBC [27]: 4 µM
MIC [28]: 16 µM

H-GKLWLKGCKLWLKGGKLWLKG-NH2
IC50 at 8 h [29]: > 64 µM
MIC [1]: > 32 µM
MIC [30]: 8 µM
MBC [2]: 8 µM
MIC [3]: 2 µM
MIC [4]: 2 µM
MIC [31]: 8 µM
MIC [32]: > 32 µM
MIC [5]: 32 µM
MBC [6]: 4 µM
MIC [7]: 8 µM
MBC [8]: 32 µM
MBC [9]: > 32 µM
IC50 at 8 h [33]: > 64 µM
MBC [10]: 2 µM
MBC [11]: > 32 µM
MBC [12]: 4 µM
MIC [13]: 4 µM
MIC [34]: 8 µM
MBC [14]: 16 µM
MIC [35]: 8 µM
MBC [15]: 16 µM
MBC [16]: > 32 µM
MIC [17]: 8 µM
MIC [18]: > 32 µM
MIC [19]: > 32 µM
MIC [36]: > 32 µM
MIC [37]: > 32 µM
MIC [20]: > 32 µM
MIC [21]: 32 µM
MIC [22]: 8 µM
HC10 [38]: > 128 µM
IC50 at 8 h [39]: > 64 µM
MBC [23]: 32 µM
MBC [24]: 32 µM
MIC [25]: 8 µM
MIC [40]: > 32 µM
MIC [41]: > 32 µM
MBC [26]: > 32 µM
MBC [27]: > 32 µM
MIC [28]: > 32 µM

H-GKLWLKGIKLWLKGGKLWLKG-NH2
IC50 at 8 h [29]: 36.9 µM
MIC [1]: 4 µM
MIC [30]: 2 µM
MBC [2]: 2 µM
MIC [3]: 1 µM
MIC [4]: 1 µM
MIC [31]: 2 µM
MIC [32]: 8 µM
MIC [5]: 2 µM
MBC [6]: 2 µM
MIC [7]: 2 µM
MBC [8]: 8 µM
MBC [9]: 8 µM
IC50 at 8 h [33]: 33.5 µM
MBC [10]: 1 µM
MBC [11]: 4 µM
MBC [12]: 1 µM
MIC [13]: 2 µM
MIC [34]: 2 µM
MBC [14]: 2 µM
MIC [35]: 2 µM
MBC [15]: 2 µM
MBC [16]: 4 µM
MIC [17]: 2 µM
MIC [18]: 8 µM
MIC [19]: 4 µM
MIC [36]: 16 µM
MIC [37]: 4 µM
MIC [20]: 4 µM
MIC [21]: 4 µM
MIC [22]: 2 µM
HC10 [38]: 64 µM
IC50 at 8 h [39]: 18.9 µM
MBC [23]: 2 µM
MBC [24]: 8 µM
MIC [25]: 8 µM
MIC [40]: > 32 µM
MIC [41]: > 32 µM
MBC [26]: > 32 µM
MBC [27]: 8 µM
MIC [28]: > 32 µM

From ChEMBL document CHEMBL5518215, “Unlocking Antibacterial Potential: Key-Site-Based Regulation of Antibacterial Spectrum of Peptides” (J Med Chem, 2024)
